Test results reported in patent EP0551518A1, “QUINOLINECARBOXYLIC ACID DERIVATIVE” (NIPPON SHINYAKU COMPANY, LIMITED, priority 1990, dated 1992).
≈ marks a conversion by molar mass, not a printed value.

Tests used:
Assay type in all cases: cell-based
S. aureus OWPH 1770 = assay: Determination of minimal inhibitory concentration (MIC)-2, new quinolone-resistant MRSA; conditions: Staphylococcus aureus, OWPH1770, 18 h; S. aureus OWPH 1770, new quinolone-resistant and methicillin-resistant; same procedure as Test Example 1
Procedure: (§1) Method: MIC was determined by the agar plate dilution method in accordance with the standard protocol of Japan Society of Chemotherapy (cf. Chemotherapy 29 (1), 76-79, 1981). Each bacterial culture obtained by 18-hour incubation in a sensitivity assay bouillon medium at 37°C was diluted to 10⁶ CFU/ml with the same medium. Using a microplanter, a sensitivity assay agar medium containing the test drug was inoculated with the diluted culture and incubated at 37°C for 18 hours. The MIC value was then determined. As reference drugs, 6-fluoro-1-methyl-4-oxo-7-(1-piperazinyl)-4H-[1,3]thiazeto[3,2-a]quinoline-3-carboxylic acid (referred to as control), ciprofloxacin (CPFX) and ofloxacin (OFLX) were used.
(§2) The antibacterial activity of the compounds obtained in Example 4, Example 25 and Example 26 of the present invention was assayed by the same procedure as in Test Example 1. As reference drugs, 6-fluoro-1-methyl-4-oxo-7-(1-piperazinyl)-4H-[1,3]-thiazeto[3,2-a]quinoline-3-carboxylic acid (referred to as Control), norfloxacin (NFLX) and tosufloxacin (TFLX) were used.

S. aureus OWPH 1773 = assay: as above; conditions: Staphylococcus aureus, OWPH1773, 18 h; S. aureus OWPH 1773, new quinolone-resistant and methicillin-resistant; same procedure as Test Example 1
Procedure: as §1, §2

S. aureus OWPH 1786 = assay: as above; conditions: Staphylococcus aureus, OWPH1786, 18 h; S. aureus OWPH 1786, new quinolone-resistant and methicillin-resistant; same procedure as Test Example 1
Procedure: as §1, §2

S. aureus OWPH 1792 = assay: as above; conditions: Staphylococcus aureus, OWPH1792, 18 h; S. aureus OWPH 1792, new quinolone-resistant and methicillin-resistant; same procedure as Test Example 1
Procedure: as §1, §2

S. aureus OWPH 1793 = assay: as above; conditions: Staphylococcus aureus, OWPH1793, 18 h; S. aureus OWPH 1793, new quinolone-resistant and methicillin-resistant; same procedure as Test Example 1
Procedure: as §1, §2

S. aureus OWPH 1796 = assay: as above; conditions: Staphylococcus aureus, OWPH1796, 18 h; S. aureus OWPH 1796, new quinolone-resistant and methicillin-resistant; same procedure as Test Example 1
Procedure: as §1, §2

S. aureus OWPH 1799 = assay: as above; conditions: Staphylococcus aureus, OWPH1799, 18 h; S. aureus OWPH 1799, new quinolone-resistant and methicillin-resistant; same procedure as Test Example 1
Procedure: as §1, §2

S. aureus OWPH 2124 = assay: as above; conditions: Staphylococcus aureus, OWPH2124, 18 h; S. aureus OWPH 2124, new quinolone-resistant and methicillin-resistant; same procedure as Test Example 1
Procedure: as §1, §2

S. aureus OWPH 2127 = assay: as above; conditions: Staphylococcus aureus, OWPH2127, 18 h; S. aureus OWPH 2127, new quinolone-resistant and methicillin-resistant; same procedure as Test Example 1
Procedure: as §1, §2

S. aureus OWPH 2128 = assay: as above; conditions: Staphylococcus aureus, OWPH2128, 18 h; S. aureus OWPH 2128, new quinolone-resistant and methicillin-resistant; same procedure as Test Example 1
Procedure: as §1, §2

S. aureus OWPH 2133 = assay: as above; conditions: Staphylococcus aureus, OWPH2133, 18 h; S. aureus OWPH 2133, new quinolone-resistant and methicillin-resistant; same procedure as Test Example 1
Procedure: as §1, §2

S. aureus OWPH 2134 = assay: as above; conditions: Staphylococcus aureus, OWPH2134, 18 h; S. aureus OWPH 2134, new quinolone-resistant and methicillin-resistant; same procedure as Test Example 1
Procedure: as §1, §2

S. aureus Sh 2 = assay: as above; conditions: Staphylococcus aureus, SH2, 18 h; S. aureus Sh 2, new quinolone-resistant and methicillin-resistant; same procedure as Test Example 1
Procedure: as §1, §2

S. aureus Sh 44 = assay: as above; conditions: Staphylococcus aureus, SH44, 18 h; S. aureus Sh 44, new quinolone-resistant and methicillin-resistant; same procedure as Test Example 1
Procedure: as §1, §2

S. aureus Sh 47 = assay: as above; conditions: Staphylococcus aureus, SH47, 18 h; S. aureus Sh 47, new quinolone-resistant and methicillin-resistant; same procedure as Test Example 1
Procedure: as §1, §2

S. aureus Sh 54 = assay: as above; conditions: Staphylococcus aureus, SH54, 18 h; S. aureus Sh 54, new quinolone-resistant and methicillin-resistant; same procedure as Test Example 1
Procedure: as §1, §2

S. aureus Sh 8 = assay: as above; conditions: Staphylococcus aureus, SH8, 18 h; S. aureus Sh 8, new quinolone-resistant and methicillin-resistant; same procedure as Test Example 1
Procedure: as §1, §2

[1] = system: Bacillus subtilis ATCC 6633; assay: Determination of minimal inhibitory concentration of growth (MIC)-1, agar plate dilution method; conditions: ATCC6633; Bacillus subtilis ATCC 6633; agar plate dilution, 10⁶ CFU/ml, 37°C, 18 hours; read-out: MIC
Procedure: as §1

[2] = system: Enterococcus faecalis ATCC 29212; assay: as above; conditions: ATCC29212; Enterococcus faecalis ATCC 29212; agar plate dilution, 10⁶ CFU/ml, 37°C, 18 hours; read-out: MIC
Procedure: as §1

Escherichia coli KC-14 = assay: as above; conditions: Escherichia coli, KC14, 18 h, 10⁶ CFU/ml, 37°C, read-out: MIC
Procedure: as §1

[3] = system: Micrococcus luteus ATCC 9341; assay: as above; conditions: ATCC9341; Micrococcus luteus ATCC 9341; agar plate dilution, 10⁶ CFU/ml, 37°C, 18 hours; read-out: MIC
Procedure: as §1

Proteus vulgaris HX-19 = assay: as above; conditions: Proteus vulgaris, HX19, 18 h, Proteus vulgaris HX-19; agar plate dilution, 10⁶ CFU/ml, 37°C, 18 hours; read-out: MIC
Procedure: as §1

[4] = system: Pseudomonas aeruginosa IFO 3445; assay: as above; conditions: Pseudomonas aeruginosa, IFO3445, 18 h, Pseudomonas aeruginosa IFO 3445; agar plate dilution, 10⁶ CFU/ml, 37°C, 18 hours; read-out: MIC
Procedure: as §1

[5] = system: Staphylococcus aureus 209-P JC-1; assay: as above; conditions: Staphylococcus aureus, 209P, 18 h, Staphylococcus aureus 209-P JC-1; agar plate dilution, 10⁶ CFU/ml, 37°C, 18 hours; read-out: MIC
Procedure: as §1

[6] = system: Staphylococcus aureus OWPH 1984 (MRSA); assay: as above; conditions: Staphylococcus aureus, MRSA, 18 h, Staphylococcus aureus OWPH 1984 (MRSA); agar plate dilution, 10⁶ CFU/ml, 37°C, 18 hours; read-out: MIC
Procedure: as §1

[7] = system: Staphylococcus aureus OWPH 2125 (MRSA, PCA^r ); assay: as above; conditions: Staphylococcus aureus, MRSA, 18 h, Staphylococcus aureus OWPH 2125 (MRSA, PCA^r); agar plate dilution, 10⁶ CFU/ml, 37°C, 18 hours; read-out: MIC
Procedure: as §1

[8] = system: Staphylococcus aureus Smith; assay: as above; conditions: Staphylococcus aureus Smith; agar plate dilution, 10⁶ CFU/ml, 37°C, 18 hours; read-out: MIC
Procedure: as §1

[9] = system: Staphylococcus epider-midis IFO 12993; assay: as above; conditions: Staphylococcus, IFO12993, 18 h, Staphylococcus epider-midis IFO 12993; agar plate dilution, 10⁶ CFU/ml, 37°C, 18 hours; read-out: MIC
Procedure: as §1

MIC (S. aureus OWPH 1770) [mg/L] | MIC (S. aureus OWPH 1773) [mg/L] | MIC (S. aureus OWPH 1786) [mg/L] | MIC (S. aureus OWPH 1792) [mg/L] | MIC (S. aureus OWPH 1793) [mg/L] | MIC (S. aureus OWPH 1796) [mg/L] | MIC (S. aureus OWPH 1799) [mg/L] | MIC (S. aureus OWPH 2124) [mg/L] | MIC (S. aureus OWPH 2127) [mg/L] | MIC (S. aureus OWPH 2128) [mg/L] | MIC (S. aureus OWPH 2133) [mg/L] | MIC (S. aureus OWPH 2134) [mg/L] | MIC (S. aureus Sh 2) [mg/L] | MIC (S. aureus Sh 44) [mg/L] | MIC (S. aureus Sh 47) [mg/L] | MIC (S. aureus Sh 54) [mg/L] | MIC (S. aureus Sh 8) [mg/L] | Compound | also measured
> 100 | > 100 | > 100 | > 100 | > 100 | > 100 | > 100 | > 100 | > 100 | > 100 | > 100 | > 100 | > 100 | > 100 | > 100 | > 100 | > 100 | CCn1cc(C(=O)O)c(=O)c2cc(F)c(N3CCNCC3)cc21 [NFLX, norfloxacin, reference compound] | 
50 (≈ 143 µM) | 100 (≈ 286 µM) | > 100 | 100 (≈ 286 µM) | > 100 | 25 (≈ 71.6 µM) | > 100 | 12.5 (≈ 35.8 µM) | > 100 | > 100 | 25 (≈ 71.6 µM) | 50 (≈ 143 µM) | 100 (≈ 286 µM) | 50 (≈ 143 µM) | 100 (≈ 286 µM) | > 100 | 100 (≈ 286 µM) | CC1Sc2c(C(=O)O)c(=O)c3cc(F)c(N4CCNCC4)cc3n21 (stereo not drawn) [Control, 6-fluoro-1-methyl-4-oxo-7-(1-piperazinyl)-4H-[1,3]thiazeto[3,2-a]quinoline-3-carboxylic acid, reference compound] | MIC [1]: 0.1 mg/L (≈ 0.286 µM); MIC [2]: 0.39 mg/L (≈ 1.12 µM); MIC (Escherichia coli KC-14): 0.012 mg/L (≈ 0.0343 µM); MIC [3]: 1.56 mg/L (≈ 4.46 µM); MIC (Proteus vulgaris HX-19): 0.025 mg/L (≈ 0.0716 µM); MIC [4]: 0.05 mg/L (≈ 0.143 µM); MIC [5]: 0.1 mg/L (≈ 0.286 µM); MIC [6]: 0.39 mg/L (≈ 1.12 µM); MIC [7]: 12.5 mg/L (≈ 35.8 µM); MIC [8]: 0.1 mg/L (≈ 0.286 µM); MIC [9]: 0.2 mg/L (≈ 0.572 µM)
